Results published in patent publication US20220304978A1, “INHIBITING MESANGIAL CELL ACTIVATION” (Chinook Therapeutics, Inc., priority 2019, published 2022).
Entries after “also recorded” stand apart in the source; their conditions may differ.

Experiments:
[1] = tested on: g-ddY mice; assay: UACR (albuminuria) in g-ddY mouse model of IgA nephropathy; format: in vivo
From the text: The grouped ddY (g-ddY) mouse is a spontaneous model of early-onset IgA nephropathy characterized by IgA immune complex deposition in the mesangium of the kidney, leading to significant proteinuria, glomerular hypercellularity, mesangioproliferative glomerular lesions, glomerular sclerosis and reduced kidney function, all hallmarks of human IgA nephropathy (J Am Soc Nephrol 23: 1364-1374, 2012). Consistent with human IgA nephropathy, the mesangial IgA deposits in the g-ddY mouse are also accompanied by deposition of IgG and complement C3.

[2] = tested on: primary human renal mesangial cells (HRMCs); assay: Proliferation (BrdU) of HRMCs stimulated with IgA-containing immune complexes from IgAN patients; format: cell-based; conditions: immune complexes purified from three patients with IgA nephropathy
From the text: Primary human mesangial cells in a culture were stimulated with pathogenic galactose deficient (Gd)-IgA containing immune complexes isolated from human IgA nephropathy patients. […] Specifically, pathogenic IgA-containing immune complexes were isolated from serum from either IgA nephropathy patients or age, gender and ethnicity-matched healthy individuals. Frozen serum was purchased from BioIVT and IgA-containing immune complexes were purified using jacalin affinity chromatography. […] Purified IgA-containing immune complexes were concentrated using a 100K Amicon filtration unit and the amount of total IgA and galactose-deficient IgA (Gd-IgA) in the immune complexes was measured by ELISA (ThermoFisher and IBL America, respectively). […] See, e.g., Novak et. al., Kidney International, 67, pp. 504-516; 2005; Novak et. al., Nephrol. Dial. Transplant, 26, pp. 3451-3457; 2011; Liang et. al., Cell Physiol. Biochem., 36, pp. 1793-1808; 2015; Nguyen et. al., Clin. Kidney 1, 12 (2), pp, 232-238; 2019.

[3] = tested on: kidney tissue of g-ddY mice; assay: Gene Set Enrichment Analysis (GSEA) hallmark gene sets, g-ddY kidney RNA-seq; format: in vivo, mouse; conditions: 30 mg/kg/day
[4] = 20 and 30 mg/kg/day, approximately 5 days

## CCCCN(CCCC)C(=O)CN1C[C@H](c2ccc3c(c2)OCO3)[C@@H](C(=O)O)[C@@H]1c1ccc(OC)cc1 [atrasentan, (2R,3R,4S)-4-(1,3-benzodioxol-5-yl)-1-[2-(dibutylamino)-2-oxoethyl]-2-(4-methoxyphenyl)pyrrolidine-3-carboxylic acid]
[1]; 10 mg/kg/day
  effect to reduce UACR from baseline compared to the control group: not significant
[1]; 10 mg/kg/day, approximately 5 days
  albuminuria compared to baseline: not significantly changed from baseline
[1]; 20 mg/kg/day, P=0.0498, un-paired t-test
  effect to reduce UACR from baseline compared to the control group: statistically significant
[1]; 20 mg/kg/day, approximately 5 days, P=0.0593
  albuminuria compared to baseline: reduced from baseline to a similar extent
[1]; 30 mg/kg/day, P=0.029
  effect to reduce UACR from baseline compared to the control group: statistically significant
[1]; 30 mg/kg/day, approximately 5 days, paired t-test
  albuminuria compared to baseline: significantly (P=0.0002, paired two-sided t-test) reduced
[1]; [4]
  albuminuria compared to control g-ddY mice: significantly reduced
  albuminuria lowering, reduction from baseline: > 60%
[2]
  hyperproliferation of HRMCs induced by IgA containing immune complexes: reduces the proliferation; also recorded: significantly attenuated
[3]
  cell proliferation associated signaling (mitotic spindle and G2M checkpoint): reduced
  inflammatory response signaling: reduced
